From article PMC7307922 (Journal of Medicinal Chemistry, 2020)
Where a name gives a salt, the structure may show the parent alone.

Assays:
hFFA3 [1] = target: T1, hFFA3 (Homo sapiens, UniProt O14843); assay: biochemical; settings: for GTPγS pEC50: hFFA3, mean of ≥3 independent experiments ± standard error; for Emax: read-out: GTPγS Emax
T1 sequence (O14843 1-346): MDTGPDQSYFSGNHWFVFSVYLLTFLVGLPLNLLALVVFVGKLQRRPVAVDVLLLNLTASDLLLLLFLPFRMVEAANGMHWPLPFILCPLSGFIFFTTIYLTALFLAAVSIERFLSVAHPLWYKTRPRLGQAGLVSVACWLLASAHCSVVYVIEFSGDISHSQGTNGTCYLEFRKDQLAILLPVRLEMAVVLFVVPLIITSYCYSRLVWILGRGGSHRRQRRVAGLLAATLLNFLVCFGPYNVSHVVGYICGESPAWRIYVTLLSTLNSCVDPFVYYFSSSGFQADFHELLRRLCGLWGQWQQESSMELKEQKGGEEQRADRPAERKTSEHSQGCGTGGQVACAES
Description: (§1) The ligands were initially screened in a human FFA3-dependent [^35S]GTPγS binding assay as this assay reflects receptor-mediated activation of Gi/o proteins and is known to generally correlate well with ligand affinity.[30] Analogues of particular interest were tested further in a cAMP inhibition assay as this is an important downstream effect of Gi-activation. […] It is furthermore performed in whole cells, is more downstream, includes G protein signal amplification, and therefore better reflects a more natural ligand–receptor response.
Membranes were isolated from Flp-In T-REx HEK293 cells treated with 100 ng/mL doxycycline to induce receptor expression. Cells were washed with ice-cold phosphate-buffered saline and removed from dishes by scraping before being centrifuged for 5 min at 4 °C, 3000 rpm. Pellets were resuspended in TE buffer (75 mM Tris–HCl, 5 mM EDTA; pH 7.5) with the addition of a protease inhibitor mixture (Roche Applied Science, West Sussex, UK). This was then homogenized with a 5 mL hand-held homogenizer and subsequently centrifuged at 1500 rpm for 5 min at 4 °C, from which the supernatant was collected and further centrifuged at 50 000 rpm for 30 min at 4 °C. The resulting pellet was resuspended in TE buffer, and the protein content was measured using a BCA protein assay kit (Pierce, Fisher Scientific, Loughborough, UK).
Reactions were initiated with the addition of [^35S]GTPγS at 50 nCi per tube; reactions were terminated after 1 h of incubation at 25 °C by rapid filtration through GF/C glass filters using a 24-well Brandel cell harvester (Alpha Biotech, Glasgow, UK). Unbound radioligand was removed from filters by washing three times with ice-cold wash buffer (50 mM Tris–HCl, pH 7.4, and 10 mM MgCl2), and [^35S]GTPγS binding was determined by liquid scintillation spectrometry.

hFFA3 [2] = target: T1, hFFA3; assay: cell-based; settings: for Emax: HEK293, read-out: cAMP Emax; for PAM pEC50: cAMP assay in the presence of 1 μM propionate; for cAMP pEC50: hFFA3, compound alone, mean of ≥3 independent experiments ± standard error
Description: as §1
HEK293 Flp-In T-Rex cells stably transfected with FFA3-eYFP receptors were incubated overnight with doxycycline to induce expression, then harvested, and cryopreserved. On the day of each experiment, cells were thawed and resuspended in stimulation buffer. Assays were carried out using a 384-well plate format with 3000 cells/well using the CisBio cAMP GS dynamic kit as per manufacturer’s protocol. Compounds were tested for the ability to inhibit 0.3 μM forskolin-induced cAMP production after co-incubation for 1 h. Reactions were measured using a PHERAstar FS plate reader (BMGLabtech, Aylesbury, UK).

| SMILES | GTPγS pEC50 (hFFA3 [1]) | Emax (hFFA3 [1]) [%] | Emax (hFFA3 [2]) [%] | PAM pEC50 (hFFA3 [2]) | cAMP pEC50 (hFFA3 [2]) | drop in potency on replacement of o-tolyl (1) (hFFA3 [1]; relative to 1) [fold] | increased potency in cAMP assay versus GTPγS assay (hFFA3 [2]; cAMP vs GTPγS data) [fold] | lower potency in cAMP assay versus GTPγS assay (hFFA3 [2]; cAMP vs GTPγS data) [fold] | PAM pEC50 (GTPγS assay) (hFFA3 [1]; GTPγS assay, with propionate) |
| --- | --- | --- | --- | --- | --- | --- | --- | --- | --- |
| CC1=C(C(=O)Nc2ccccc2C)C(c2cccs2)C2=C(CCCC2=O)N1 (stereo not shown) [Compound 4, 2-Methyl-5-oxo-4-(thiophen-2-yl)-N-(o-tolyl)-1,4,5,6,7,8-hexahydroquinoline-3-carboxamide] | 5.52 ± 0.18 | 111 | 102 | 5.92 ± 0.04 | 5.79 ± 0.04 | – | – | – | – |
| CC1=C(C(=O)Nc2ccccc2Cl)C(CC(C)C)C2=C(CCCC2=O)N1 (stereo not shown) [Compound 20, N-(2-Chlorophenyl)-4-isobutyl-2-methyl-5-oxo-1,4,5,6,7,8-hexahydroquinoline-3-carboxamide] | 5.41 ± 0.13 | 105 | 94 | – | 6.15 ± 0.06 | – | – | – | – |
| CC1=C(C(=O)Nc2cccc(C)c2)C(c2ccco2)C2=C(CCCC2=O)N1 (stereo not shown) [Compound 13, 4-(Furan-2-yl)-2-methyl-5-oxo-N-(m-tolyl)-1,4,5,6,7,8-hexahydroquinoline-3-carboxamide] | 5.34 ± 0.15 | 78 | 100 | – | 5.80 ± 0.04 | – | – | – | – |
| CC1=C(C(=O)Nc2ccccc2)C(c2ccco2)C2=C(CCCC2=O)N1 (stereo not shown) [Compound 12] | 5.11 ± 0.12 | 81 | 97 | – | 5.45 ± 0.03 | > 3 | – | – | – |
| CC1=C(C(=O)Nc2ccc(C)cc2)C(c2ccco2)C2=C(CCCC2=O)N1 (stereo not shown) [Compound 14, 4-(Furan-2-yl)-2-methyl-5-oxo-N-(p-tolyl)-1,4,5,6,7,8-hexahydroquinoline-3-carboxamide] | 5.27 ± 0.12 | 88 | 100 | – | 6.16 ± 0.03 | – | – | – | – |
| CC1=C(C(=O)Nc2ccccc2C)C(c2ccccc2)C2=C(CCCC2=O)N1 (stereo not shown) [Compound 3, 2-Methyl-5-oxo-4-phenyl-N-(o-tolyl)-1,4,5,6,7,8-hexahydroquinoline-3-carboxamide] | 4.75 ± 0.11 | 103 | 98 | – | 5.91 ± 0.04 | – | 14 | – | – |
| CC1=C(C(=O)Nc2ccccc2C)C(c2cccc(Br)c2)C2=C(CCCC2=O)N1 (stereo not shown) [Compound 6, 4-(3-Bromophenyl)-2-methyl-5-oxo-N-(o-tolyl)-1,4,5,6,7,8-hexahydroquinoline-3-carboxamide] | 5.49 ± 0.08 | 89 | 99 | – | 5.87 ± 0.06 | – | – | – | – |
| CC1=C(C(=O)Nc2ccccc2C)C(c2ccc(Br)cc2)C2=C(CCCC2=O)N1 (stereo not shown) [Compound 7, 4-(4-Bromophenyl)-2-methyl-5-oxo-N-(o-tolyl)-1,4,5,6,7,8-hexahydroquinoline-3-carboxamide] | 5.43 ± 0.09 | 85 | 103 | – | 5.79 ± 0.03 | – | – | – | – |
| CC1=C(C(=O)Nc2ccccc2C)C(c2cccc(C(F)(F)F)c2)C2=C(CCCC2=O)N1 (stereo not shown) [Compound 8, 2-Methyl-5-oxo-N-(o-tolyl)-4-(3-(trifluoromethyl)phenyl)-1,4,5,6,7,8-hexahydroquinoline-3-carboxamide] | 4.81 ± 0.13 | 118 | 98 | – | 5.55 ± 0.05 | – | – | – | – |
| CC1=C(C(=O)Nc2ccccc2C)C(CC(C)C)C2=C(CCCC2=O)N1 (stereo not shown) [Compound 17, 4-Isobutyl-2-methyl-5-oxo-N-(o-tolyl)-1,4,5,6,7,8-hexahydroquinoline-3-carboxamide] | 5.68 ± 0.13 | 109 | 109 | 6.28 ± 0.14 | 5.00 ± 0.06 | – | – | 5 | – |
| CCc1ccc(C2C(C(=O)Nc3ccccc3C)=C(C)NC3=C2C(=O)CCC3)cc1 (stereo not shown) [Compound 11, 4-(4-Ethylphenyl)-2-methyl-5-oxo-N-(o-tolyl)-1,4,5,6,7,8-hexahydroquinoline-3-carboxamide] | 4.08 ± 0.26 | 143 | 96 | – | 5.17 ± 0.08 | – | – | – | – |
| CC1=C(C(=O)Nc2cc(Cl)ccc2Cl)C(CNC(=O)OC(C)(C)C)C2=C(CCCC2=O)N1 (stereo not shown) [Compound 55, tert-Butyl((3-((2,5-dichlorophenyl)carbamoyl)-2-methyl-5-oxo-1,4,5,6,7,8-hexahydroquinolin-4-yl)methyl)carbamate] | – | – | – | – | nr^d | – | – | – | – |
| Cc1ccccc1NC(=O)c1c(C)nc2c(c1-c1ccco1)C(=O)CCC2 [Compound 24, 4-(Furan-2-yl)-2-methyl-5-oxo-N-(o-tolyl)-5,6,7,8-tetrahydroquinoline-3-carboxamide] | – | – | – | – | inactive and nr^c | – | – | – | nr^c,d |
| CC1=C(C(=O)Nc2ccccc2C)C(c2ccc(C)cc2)C2=C(CCCC2=O)N1 (stereo not shown) [Compound 10, 2-Methyl-5-oxo-N-(o-tolyl)-4-(p-tolyl)-1,4,5,6,7,8-hexahydroquinoline-3-carboxamide] | 4.52 ± 0.11 | 88 | 97 | – | 5.44 ± 0.04 | – | – | – | – |
| CC1=C(C(=O)Nc2c(F)cccc2F)C(CC(C)C)C2=C(CCCC2=O)N1 (stereo not shown) [Compound 21, N-(2,6-Difluorophenyl)-4-isobutyl-2-methyl-5-oxo-1,4,5,6,7,8-hexahydroquinoline-3-carboxamide] | 4.67 ± 0.22 | 89 | 104 | – | 4.98 ± 0.08 | – | – | – | – |
| CC1=C(C(=O)Nc2cc(Cl)ccc2Cl)C(CN)C2=C(CCCC2=O)N1 (stereo not shown) [Compound 52, 4-(Aminomethyl)-N-(2,5-dichlorophenyl)-2-methyl-5-oxo-1,4,5,6,7,8-hexahydroquinoline-3-carboxamide Hydrochloride] | – | – | – | – | nr^d | – | – | – | – |
| CC1=C(C(=O)Nc2ccccc2C)C(c2ccc(C(F)(F)F)cc2)C2=C(CCCC2=O)N1 (stereo not shown) [Compound 9, 2-Methyl-5-oxo-N-(o-tolyl)-4-(4-(trifluoromethyl)phenyl)-1,4,5,6,7,8-hexahydroquinoline-3-carboxamide] | 5.12 ± 0.13 | 116 | 101 | – | 5.31 ± 0.06 | – | – | – | – |
| CCCCC1C(C(=O)Nc2ccccc2C)=C(C)NC2=C1C(=O)CCC2 (stereo not shown) [Compound 36, 2-Methyl-5-oxo-4-butyl-N-(o-tolyl)-1,4,5,6,7,8-hexahydroquinoline-3-carboxamide] | – | – | – | 6.58 ± 0.06 | 5.86 ± 0.03 | – | – | – | – |
